Results on two compounds are retold here after patent US20050079495A1, “Modified tachykinin receptors” (priority 2000, published 2005).

In test [1] the test system is functional G-protein Ca^2+ linked pathway. Briefly: Fura-2 calcium imaging, UTP challenge of COS-7 cells. Conditions: UTP 3μM, 1 min. Type of test: cell-based, monkey. How it is done:
Coverslips containing cells were prepared and maintained as described. Cultured cells were washed twice in a Krebs-Hepes extra-cellular medium buffer (EM, composition in mM: NaCl 118, KCl 4.7, MgSO4 1.2, CaCl2 1.2, KH2PO4 1.2, Hepes 10, glucose 11 and BSA 0.1%, (pH 7.2 at 20° C., (Rossant, et al Endocrinology, 140, 1525-1536), and then loaded with Fura-2 (Rossant, et al Endocrinology, 140, 1525-1536) by incubation for 3 h at 20° C. with EM containing Fura-2-AM (2 μM, Molecular Probes). This procedure enables the cells to load with Fura-2-AM, which becomes hydrolysed to the free acid form once inside the intact cells. After loading, coverslips were mounted into imaging chambers and perfused with EM to remove extra-cellular Fura-2-AM and to allow hydrolysis of intracellular Fura-2-AM to occur. Measurements of changes in the free [Ca^2+]i in individual cells were made from the fluorescence ratio (excitations 340 nm/380 nm, emission >510 nm) using a Spectral Wizard monochromator, cooled integrating CCD camera and a dedicated suite of software (Merlin, Life Sciences Resources, Cambridge, UK). Data are expressed as ratio units 340/380.
Genes encoding wild type sense, wild type anti-sense and variant NK-1 receptors described above were transiently transfected into COS-7 (monkey kidney) cell lines.

The subject of test [2] is wild type anti-sense transfected COS-7 cells. Briefly: Fura-2 calcium imaging, COS-7 cells transfected with wild type anti-sense construct (negative control). Type of test: cell-based, monkey. Conditions: COS-7 cells expressing wild type anti-sense, substance P 1 nM. How it is done: The resulting cDNA was excised from the parental vector, spliced into a mammalian expression vector, pCMV3.1 (Invitrogen). This cDNA was in an orientation which allowed expression of the hNK-1vR polypeptide. Stock plasmid was prepared by amplification in E. coli and the plasmid DNA subsequently purified using a Qiagen endonuclease free DNA preparation kit, and the fidelity of the construct confirmed by DNA sequencing. The nucleic acid sequence of the cDNA is SEQ ID N^o6 (FIG. 2) and the translated protein sequence is SEQ ID N^o5 (FIG. 1). Similarly control (negative control) constructs were prepared whereby wild type and variant HNK-1R cDNA was spliced into the vector in an opposite configuration to that described above. A further control (positive control) was prepared by ligation of the parental wild type hNK-1R cDNA into the vector in a manner which would allow hNK-1R polypeptide to be expressed. […]
Coverslips containing cells were prepared and maintained as described. […] Measurements of changes in the free [Ca^2+]i in individual cells were made from the fluorescence ratio (excitations 340 nm/380 nm, emission >510 nm) using a Spectral Wizard monochromator, cooled integrating CCD camera and a dedicated suite of software (Merlin, Life Sciences Resources, Cambridge, UK). Data are expressed as ratio units 340/380. […]

Turning to `O=c1ccn([C@@H]2O[C@H](COP(=O)(O)OP(=O)(O)OP(=O)(O)O)[C@@H](O)[C@H]2O)c(=O)[nH]1` [UTP], the “[Ca^2+]i response to UTP challenge” value in test [1] is “caused a [Ca^2+]i response”.

In the case of “H-Arg-Pro-Lys-Pro-Gln-Gln-Phe-Phe-Gly-Leu-Met-NH2 [substance P]”, the “Ca^2+ response to substance P challenge” value in test [2] is recorded as “failed to invoke a Ca^2+ response”.
